From the NIST ThermoML archive (doi:10.1016/j.jct.2018.04.019)

Details: Liquid; for speed of sound: Frequency=5 MHz, Pulse-echo method; for mass density: Vibrating tube method

CCCCCCCCC [nonane]
Details	mass density [kg/m3]	speed of sound [m/s]
283.13 K, 1090 kPa	–	1273.9
283.13 K, 30100 kPa	–	1432.4
283.13 K, 59970 kPa	–	1563.7
283.13 K, 90370 kPa	–	1676.8
283.13 K, 120250 kPa	–	1774.7
283.13 K, 149990 kPa	–	1862.2
283.13 K, 180130 kPa	–	1943.2
283.13 K, 210070 kPa	–	2017.3
283.13 K, 240000 kPa	–	2086.3
283.13 K, 270320 kPa	–	2151.8
283.13 K, 300010 kPa	–	2212.5
283.13 K, 330300 kPa	–	2271
283.13 K, 360220 kPa	–	2326
283.13 K, 389880 kPa	–	2378.1
283.15 K, 1010 kPa	726.22	–
283.15 K, 5020 kPa	729.22	–
283.15 K, 5040 kPa	729.17	–
283.15 K, 10020 kPa	732.75	–
283.15 K, 15020 kPa	736.14	–
283.15 K, 20040 kPa	739.41	–
283.15 K, 25020 kPa	742.54	–
283.15 K, 30040 kPa	745.52	–
283.15 K, 35050 kPa	748.45	–
283.15 K, 40010 kPa	751.23	–
283.15 K, 45050 kPa	753.99	–
283.15 K, 50010 kPa	756.62	–
283.15 K, 55020 kPa	759.19	–
283.15 K, 60030 kPa	761.66	–
283.15 K, 65010 kPa	764.08	–
298.15 K, 1020 kPa	714.83	–
298.15 K, 1040 kPa	–	1212.6
298.15 K, 5010 kPa	718.08	–
298.15 K, 5040 kPa	718.12	–
298.15 K, 10030 kPa	721.94	–
298.15 K, 15060 kPa	725.7	–
298.15 K, 20040 kPa	729.17	–
298.15 K, 25040 kPa	732.54	–
298.15 K, 30010 kPa	735.76	–
298.15 K, 30040 kPa	–	1380.2
298.15 K, 35050 kPa	738.87	–
298.15 K, 40010 kPa	741.88	–
298.15 K, 45060 kPa	744.79	–
298.15 K, 50010 kPa	747.56	–
298.15 K, 55040 kPa	750.31	–
298.15 K, 60020 kPa	752.92	–
298.15 K, 60130 kPa	–	1518
298.15 K, 65010 kPa	755.48	–
298.15 K, 90110 kPa	–	1633.4
298.15 K, 120200 kPa	–	1734.7
298.15 K, 150120 kPa	–	1824.9
298.15 K, 180370 kPa	–	1907.9
298.15 K, 210410 kPa	–	1983.7
298.15 K, 240020 kPa	–	2053.1
298.15 K, 270230 kPa	–	2119.6
298.15 K, 300100 kPa	–	2181.4
298.15 K, 330260 kPa	–	2240.5
298.15 K, 360030 kPa	–	2296
298.15 K, 390030 kPa	–	2349.2
323.14 K, 1020 kPa	–	1112.3
323.14 K, 30050 kPa	–	1297.8
323.14 K, 60210 kPa	–	1445.2
323.14 K, 90150 kPa	–	1566.7
323.14 K, 120240 kPa	–	1672.3
323.14 K, 150130 kPa	–	1765.5
323.14 K, 179980 kPa	–	1850.1
323.14 K, 210410 kPa	–	1929.2
323.14 K, 239980 kPa	–	2000.4
323.14 K, 270330 kPa	–	2068.7
323.14 K, 300070 kPa	–	2131.6
323.14 K, 330050 kPa	–	2191.3
323.14 K, 360040 kPa	–	2247.9
323.14 K, 390060 kPa	–	2301.7
323.15 K, 1030 kPa	695.27	–
323.15 K, 5030 kPa	699.04	–
323.15 K, 5060 kPa	699.09	–
323.15 K, 10050 kPa	703.57	–
323.15 K, 15020 kPa	707.81	–
323.15 K, 20050 kPa	711.84	–
323.15 K, 25020 kPa	715.63	–
323.15 K, 30020 kPa	719.22	–
323.15 K, 35080 kPa	722.75	–
323.15 K, 40050 kPa	726.09	–
323.15 K, 45060 kPa	729.27	–
323.15 K, 50030 kPa	732.36	–
323.15 K, 55050 kPa	735.35	–
323.15 K, 60010 kPa	738.19	–
323.15 K, 65010 kPa	741.02	–
348.14 K, 1040 kPa	–	1017.2
348.14 K, 1060 kPa	–	1018.1
348.14 K, 30150 kPa	–	1220.8
348.14 K, 59870 kPa	–	1375.2
348.14 K, 90060 kPa	–	1503.8
348.14 K, 120210 kPa	–	1613.8
348.14 K, 150180 kPa	–	1710.4
348.14 K, 180310 kPa	–	1798.1
348.14 K, 210230 kPa	–	1877.8
348.14 K, 240360 kPa	–	1951.8
348.14 K, 269990 kPa	–	2019.2
348.14 K, 300420 kPa	–	2084.3
348.14 K, 330170 kPa	–	2144.5
348.14 K, 360170 kPa	–	2202.2
348.14 K, 390070 kPa	–	2256.5
348.15 K, 1010 kPa	675.18	–
348.15 K, 5030 kPa	679.76	–
348.15 K, 5040 kPa	679.76	–
348.15 K, 10030 kPa	685	–
348.15 K, 15020 kPa	689.84	–
348.15 K, 20040 kPa	694.44	–
348.15 K, 25050 kPa	698.79	–
348.15 K, 30030 kPa	702.84	–
348.15 K, 35050 kPa	706.74	–
348.15 K, 40020 kPa	710.4	–
348.15 K, 45070 kPa	714.01	–
348.15 K, 50040 kPa	717.37	–
348.15 K, 55050 kPa	720.67	–
348.15 K, 60000 kPa	723.79	–
348.15 K, 65040 kPa	726.84	–
373.14 K, 1020 kPa	–	924.94
373.14 K, 30120 kPa	–	1147.9
373.14 K, 60040 kPa	–	1312.4
373.14 K, 90420 kPa	–	1447
373.14 K, 120190 kPa	–	1559.5
373.14 K, 150200 kPa	–	1659
373.14 K, 180540 kPa	–	1749
373.14 K, 210010 kPa	–	1829.3
373.14 K, 240370 kPa	–	1905.5
373.14 K, 270130 kPa	–	1974.7
373.14 K, 300130 kPa	–	2040.3
373.14 K, 330240 kPa	–	2102.3
